The values that follow come from paper PMC11571015, “Hybrids of Membrane-Translocating Antimicrobial Peptides Show Enhanced Activity through Membrane Permeabilization” (ACS Medicinal Chemistry Letters, 2024).

Converted amounts (≈) assume the structure as drawn. Bounds are passed on as bounds.

Assay [1] relates to E. coli. The class given is cell-based, E. coli (Top10 Strain). The following applies: median MIC; microbroth dilution, 1:2 serial dilution 18.2 to 1.8x10-2 μM, 4 × 10^6 CFU/mL, 1 h 37°C in wash buffer pH 7.4, then TSB overnight (18-24 h), OD600; triplicate per plate; mixture: each peptide at the reported concentration. Here is the method:
(§1) Supplemental Information for Trevellin et al.
(§2) Peptide design and preparation […]
(§3) synthesized by GenScript (Piscataway, NJ) at >95% purity determined by HPLC and dissolved in DI water. Concentrations were measured by triplicate tryptophan absorbance readings at 280 nm (ε=5700 M–1cm–1, l=1 cm) using a ThermoScientific NanoDrop 2000 (Waltham, MA). Buforin II (BF2) included an F10W mutation used in many previous studies1-5 to allow for concentration measurements.
(§4) Bacteria included E. coli (Top10 Strain, Invitrogen/ThermoFisher) containing a plasmid for ampicillin resistance (Novagen) and/or B. subtilis (ATCC #6051). Bacterial growth was performed in TSB (trypticase soy broth) prepared at 3% w/v (30 g of media in 1 L) from BD Difco unless otherwise noted. Overnight cultures were picked from petri dishes or frozen stock and grown for 14-16 hours at 37 °C in TSB with shaking. E. coli overnight cultures were incubated with 25 μg/mL ampicillin. The overnight cultures were then diluted 1:100 in 25 mL TSB and incubated at 37 °C with shaking for 2.5 h. The culture was pelleted via centrifugation at 1500×g for 10 min at room temperature and resuspended in sterile cold wash buffer (10 mM sodium phosphate buffer and 10 mM sodium chloride, pH 7.4). These resuspended bacteria were then used for radial diffusion, microbroth dilution, and propidium iodide assays. […]
(§5) Microbroth dilution assay
(§6) Microbroth dilution assays were used to determine the minimum inhibitory concentration (MIC) of each peptide for E. coli and B. subtilis (ATCC #6051). A 1:2 serial dilution was prepared for a peptide across the top row of a 96-well plate. 100 μL of bacterial suspension (4 × 10^6 CFU/mL, diluted in sterile wash buffer, 10 mM sodium phosphate buffer and 10 mM sodium chloride, pH 7.4) and 10 μL of peptide were mixed to each well in subsequent rows of the plate. The 11 effective peptide concentrations ranged from 18.2 μM to 1.8x10-2 μM, with DI water used as a control, and each concentration was tested in triplicate per plate. After the bacteria and peptide mixtures were incubated in plates at 37°C for 1 hour, 100 μL of 6% w/v TSB was added to each well. For wells containing E. coli, ampicillin was added at a final concentration of 25 µg/ml. The plate was then incubated overnight (18-24 h) at 37°C. After incubation, OD600nm were measured using the SpectraMax M3 microplate reader (Molecular Devices). […]
(§7) relative permeability = F5/F0
(§8) Each peptide was tested with bacteria grown from at least three distinct overnight […]
(§9) The MTS assay is a colorimetric viability assay for mammalian cells. HEK 293 cells (ATCC CRL-1573) were grown in complete growth medium (EMEM, 10% fetal bovine serum, 1% penicillin-streptomycin). Cells were cultured in a T-75 maintenance flask, fed with fresh media every 1-2 days, and passaged approximately every 5-7 days once cells reached 70-90% confluence. During passaging, HEK 293 cells were plated in a 96-well plate at 20,000 cells/well and incubated for 4-6 hours (37 °C, 95% humidity, 5% CO2). Each column of cells (8 replicates) was then incubated overnight with 18.2 µM peptide or a control. After incubation, media was aspirated and refreshed for each well, […]

The subject of assay [2] is B. subtilis. In kind it is cell-based, B. subtilis (ATCC #6051). The following applies: 1 h, pH 7.4. Here is the method:
as §1, §2, §3, §4, §5, §6, §7, §8, §9

With `CC[C@H](C)[C@H](NC(=O)[C@H](CCCNC(=N)N)NC(=O)[C@@H](NC(=O)[C@H](CCCCN)NC(=O)[C@H](CCCCN)NC(=O)[C@H](CC(N)=O)NC(=O)[C@H](CC(=O)O)NC(=O)[C@H](CCCNC(=N)N)NC(=O)[C@H](C)NC(=O)[C@H](C)NC(=O)[C@H](CCCCN)NC(=O)[C@H](CCCNC(=N)N)NC(=O)[C@H](CC(C)C)NC(=O)[C@H](CC(C)C)NC(=O)[C@H](CCCNC(=N)N)NC(=O)[C@H](Cc1c[nH]cn1)NC(=O)[C@@H](NC(=O)[C@H](CCCNC(=N)N)NC(=O)CNC(=O)[C@@H](NC(=O)[C@@H]1CCCN1C(=O)[C@H](Cc1c[nH]c2ccccc12)NC(=O)[C@H](CCC(N)=O)NC(=O)[C@H](CC(C)C)NC(=O)CNC(=O)[C@H](C)NC(=O)[C@H](CCCNC(=N)N)NC(=O)[C@H](CO)NC(=O)[C@H](CO)NC(=O)[C@H](CCCNC(=N)N)NC(=O)[C@@H](N)[C@@H](C)O)C(C)C)C(C)C)[C@@H](C)O)C(=O)N[C@@H](Cc1c[nH]c2ccccc12)C(=O)N1CCC[C@H]1C(=O)N[C@@H](CCCNC(=N)N)C(=O)N[C@@H](Cc1c[nH]cn1)C(=O)N[C@@H](CC(C)C)C(=O)N[C@@H](CCC(N)=O)C(=O)N[C@@H](CC(C)C)C(=O)N[C@@H](C)C(=O)N[C@H](C(=O)N[C@@H](CCCNC(=N)N)C(=O)N[C@@H](CC(N)=O)C(=O)O)C(C)C` [BF2-A-DesHDAP1 (BAD)], in assay [1], the “MIC against E. coli” value was found to be 1.1 µM (≈ 5.5 µg/mL). For the same compound, the “MIC against B. subtilis” value in assay [2] was found to be 4.6 µM (≈ 23 µg/mL).

As for `CC(C)C[C@H](NC(=O)CNC(=O)[C@H](C)NC(=O)[C@H](CCCNC(=N)N)NC(=O)[C@H](CO)NC(=O)[C@H](CO)NC(=O)[C@H](CCCNC(=N)N)NC(=O)[C@@H](N)[C@@H](C)O)C(=O)N[C@@H](CCC(N)=O)C(=O)N[C@@H](Cc1c[nH]c2ccccc12)C(=O)N1CCC[C@H]1C(=O)N[C@H](C(=O)NCC(=O)N[C@@H](CCCNC(=N)N)C(=O)N[C@H](C(=O)N[C@@H](Cc1c[nH]cn1)C(=O)N[C@@H](CCCNC(=N)N)C(=O)N[C@@H](CC(C)C)C(=O)N[C@@H](CC(C)C)C(=O)N[C@@H](CCCNC(=N)N)C(=O)N[C@@H](CCCCN)C(=O)O)C(C)C)C(C)C` [Buforin II (BF2), reference compound], in assay [1], the “MIC against E. coli” value is above 18.2 µM.

As to `CC[C@H](C)[C@H](NC(=O)[C@H](CCCNC(=N)N)NC(=O)[C@@H](NC(=O)[C@H](CCCCN)NC(=O)[C@H](CCCCN)NC(=O)[C@H](CC(N)=O)NC(=O)[C@H](CC(=O)O)NC(=O)[C@H](CCCNC(=N)N)NC(=O)[C@H](C)N)[C@@H](C)O)C(=O)N[C@@H](Cc1c[nH]c2ccccc12)C(=O)N1CCC[C@H]1C(=O)N[C@@H](CCCNC(=N)N)C(=O)N[C@@H](Cc1c[nH]cn1)C(=O)N[C@@H](CC(C)C)C(=O)N[C@@H](CCC(N)=O)C(=O)N[C@@H](CC(C)C)C(=O)N[C@@H](C)C(=O)N[C@H](C(=O)N[C@@H](CCCNC(=N)N)C(=O)N[C@@H](CC(N)=O)C(=O)N[C@@H](C)C(=O)N[C@H](C(=O)N[C@@H](CCCNC(=N)N)C(=O)N[C@@H](CO)C(=O)N[C@@H](CO)C(=O)N[C@@H](CCCNC(=N)N)C(=O)N[C@@H](C)C(=O)NCC(=O)N[C@@H](CC(C)C)C(=O)N[C@@H](CCC(N)=O)C(=O)N[C@@H](Cc1c[nH]c2ccccc12)C(=O)N1CCC[C@H]1C(=O)N[C@H](C(=O)NCC(=O)N[C@@H](CCCNC(=N)N)C(=O)N[C@H](C(=O)N[C@@H](Cc1c[nH]cn1)C(=O)N[C@@H](CCCNC(=N)N)C(=O)N[C@@H](CC(C)C)C(=O)N[C@@H](CC(C)C)C(=O)N[C@@H](CCCNC(=N)N)C(=O)N[C@@H](CCCCN)C(=O)O)C(C)C)C(C)C)[C@@H](C)O)C(C)C` [DesHDAP1-A-BF2 (DAB)], the “MIC against E. coli” value in assay [1] turned out to be 1.1 µM (≈ 5.5 µg/mL). For the same compound, the “MIC against B. subtilis” value in assay [2] stood at 4.6 µM (≈ 23 µg/mL).

With `CC[C@H](C)[C@H](NC(=O)[C@H](CCCNC(=N)N)NC(=O)[C@@H](NC(=O)[C@H](CCCCN)NC(=O)[C@H](CCCCN)NC(=O)[C@H](CC(N)=O)NC(=O)[C@H](CC(=O)O)NC(=O)[C@H](CCCNC(=N)N)NC(=O)[C@H](C)N)[C@@H](C)O)C(=O)N[C@@H](Cc1c[nH]c2ccccc12)C(=O)N1CCC[C@H]1C(=O)N[C@@H](CCCNC(=N)N)C(=O)N[C@@H](Cc1c[nH]cn1)C(=O)N[C@@H](CC(C)C)C(=O)N[C@@H](CCC(N)=O)C(=O)N[C@@H](CC(C)C)C(=O)N[C@@H](C)C(=O)N[C@H](C(=O)N[C@@H](CCCNC(=N)N)C(=O)N[C@@H](CC(N)=O)C(=O)N1CCC[C@H]1C(=O)N[C@H](C(=O)N[C@@H](CCCNC(=N)N)C(=O)N[C@@H](CO)C(=O)N[C@@H](CO)C(=O)N[C@@H](CCCNC(=N)N)C(=O)N[C@@H](C)C(=O)NCC(=O)N[C@@H](CC(C)C)C(=O)N[C@@H](CCC(N)=O)C(=O)N[C@@H](Cc1c[nH]c2ccccc12)C(=O)N1CCC[C@H]1C(=O)N[C@H](C(=O)NCC(=O)N[C@@H](CCCNC(=N)N)C(=O)N[C@H](C(=O)N[C@@H](Cc1c[nH]cn1)C(=O)N[C@@H](CCCNC(=N)N)C(=O)N[C@@H](CC(C)C)C(=O)N[C@@H](CC(C)C)C(=O)N[C@@H](CCCNC(=N)N)C(=O)N[C@@H](CCCCN)C(=O)O)C(C)C)C(C)C)[C@@H](C)O)C(C)C` [DesHDAP1-P-BF2 (DPB)], the “MIC against E. coli” value in assay [1] was determined as 1.1 µM (≈ 5.53 µg/mL). Moreover, in assay [2], the “MIC against B. subtilis” value came to 4.6 µM (≈ 23.1 µg/mL).

Take `CC[C@H](C)[C@H](NC(=O)[C@H](CCCNC(=N)N)NC(=O)[C@@H](NC(=O)[C@H](CCCCN)NC(=O)[C@H](CCCCN)NC(=O)[C@H](CC(N)=O)NC(=O)[C@H](CC(=O)O)NC(=O)[C@H](CCCNC(=N)N)NC(=O)[C@H](C)N)[C@@H](C)O)C(=O)N[C@@H](Cc1c[nH]c2ccccc12)C(=O)N1CCC[C@H]1C(=O)N[C@@H](CCCNC(=N)N)C(=O)N[C@@H](Cc1c[nH]cn1)C(=O)N[C@@H](CC(C)C)C(=O)N[C@@H](CCC(N)=O)C(=O)N[C@@H](CC(C)C)C(=O)N[C@@H](C)C(=O)N[C@H](C(=O)N[C@@H](CCCNC(=N)N)C(=O)N[C@@H](CC(N)=O)C(=O)N[C@H](C(=O)N[C@@H](CCCNC(=N)N)C(=O)N[C@@H](CO)C(=O)N[C@@H](CO)C(=O)N[C@@H](CCCNC(=N)N)C(=O)N[C@@H](C)C(=O)NCC(=O)N[C@@H](CC(C)C)C(=O)N[C@@H](CCC(N)=O)C(=O)N[C@@H](Cc1c[nH]c2ccccc12)C(=O)N1CCC[C@H]1C(=O)N[C@H](C(=O)NCC(=O)N[C@@H](CCCNC(=N)N)C(=O)N[C@H](C(=O)N[C@@H](Cc1c[nH]cn1)C(=O)N[C@@H](CCCNC(=N)N)C(=O)N[C@@H](CC(C)C)C(=O)N[C@@H](CC(C)C)C(=O)N[C@@H](CCCNC(=N)N)C(=O)N[C@@H](CCCCN)C(=O)O)C(C)C)C(C)C)[C@@H](C)O)C(C)C` [DesHDAP1-BF2 (DB)]: the “MIC against E. coli” value in assay [1] worked out at 1.1 µM (≈ 5.42 µg/mL). Further, in assay [2], the “MIC against B. subtilis” value worked out at 4.6 µM (≈ 22.7 µg/mL).

For `CC[C@H](C)[C@H](NC(=O)[C@H](CCCNC(=N)N)NC(=O)[C@@H](NC(=O)[C@H](CCCCN)NC(=O)[C@H](CCCCN)NC(=O)[C@H](CC(N)=O)NC(=O)[C@H](CC(=O)O)NC(=O)[C@H](CCCNC(=N)N)NC(=O)[C@H](C)NC(=O)[C@H](CCCCN)NC(=O)[C@H](CCCNC(=N)N)NC(=O)[C@H](CC(C)C)NC(=O)[C@H](CC(C)C)NC(=O)[C@H](CCCNC(=N)N)NC(=O)[C@H](Cc1c[nH]cn1)NC(=O)[C@@H](NC(=O)[C@H](CCCNC(=N)N)NC(=O)CNC(=O)[C@@H](NC(=O)[C@@H]1CCCN1C(=O)[C@H](Cc1c[nH]c2ccccc12)NC(=O)[C@H](CCC(N)=O)NC(=O)[C@H](CC(C)C)NC(=O)CNC(=O)[C@H](C)NC(=O)[C@H](CCCNC(=N)N)NC(=O)[C@H](CO)NC(=O)[C@H](CO)NC(=O)[C@H](CCCNC(=N)N)NC(=O)[C@@H](N)[C@@H](C)O)C(C)C)C(C)C)[C@@H](C)O)C(=O)N[C@@H](Cc1c[nH]c2ccccc12)C(=O)N1CCC[C@H]1C(=O)N[C@@H](CCCNC(=N)N)C(=O)N[C@@H](Cc1c[nH]cn1)C(=O)N[C@@H](CC(C)C)C(=O)N[C@@H](CCC(N)=O)C(=O)N[C@@H](CC(C)C)C(=O)N[C@@H](C)C(=O)N[C@H](C(=O)N[C@@H](CCCNC(=N)N)C(=O)N[C@@H](CC(N)=O)C(=O)O)C(C)C` [BF2-DesHDAP1 (BD)], in assay [1], the “MIC against E. coli” value worked out at 1.1 µM (≈ 5.42 µg/mL). The “MIC against B. subtilis” value in assay [2] was found to be 4.6 µM (≈ 22.7 µg/mL).
